Source: PMC3741162, “Structures of Streptococcus pneumoniae PiaA and Its Complex with Ferrichrome Reveal Insights into the Substrate Binding and Release of High Affinity Iron Transporters” (PLoS ONE, 2013)
Where a SMILES comes first, the peptide text is derived from it. [ ]: non-standard residue; d: D form. Orn(N5-OH,N5-Ac) = CC(=O)N(O)CCC[C@H](N)C(=O)O

Columns and labels:
[1] = biological target: T1, PiaA (Streptococcus pneumoniae, UniProt A0A0H2UPT5); assay: ITC and crystal structure ([…] Å); format: binding
T1 construct: gene SP_1032; residues Asn23-Lys341, N-terminal 6×His-tag

[2] = biological target: T2, PiaA (Streptococcus pneumoniae, UniProt A0A0H2UPT5, W63A); assay: ITC; format: binding
T2 construct: gene SP_1032; residues Asn23-Lys341, N-terminal 6×His-tag
T2 sequence (A0A0H2UPT5 23-341 W63A): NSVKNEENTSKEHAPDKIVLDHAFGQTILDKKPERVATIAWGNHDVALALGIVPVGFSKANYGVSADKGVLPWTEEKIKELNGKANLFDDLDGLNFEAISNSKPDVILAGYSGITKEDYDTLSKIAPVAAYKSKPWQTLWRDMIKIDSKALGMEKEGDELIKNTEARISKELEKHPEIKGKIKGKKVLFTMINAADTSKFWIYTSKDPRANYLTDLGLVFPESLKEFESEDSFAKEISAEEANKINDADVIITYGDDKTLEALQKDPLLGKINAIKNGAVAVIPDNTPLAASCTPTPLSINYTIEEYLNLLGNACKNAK

In the case of `CC(=O)N([O-])CCC[C@@H]1NC(=O)CNC(=O)CNC(=O)CNC(=O)[C@H](CCCN([O-])C(C)=O)NC(=O)[C@H](CCCN([O-])C(C)=O)NC1=O.[Fe+3]` [ferrichrome] (cyclo(GGG[Orn(N5-OH,N5-Ac)][Orn(N5-OH,N5-Ac)][Orn(N5-OH,N5-Ac)])), the Kd [1] is reported as 5.8 ± 1.4 nM and the Kd [2] is reported as ~32.8 nM.
